Measured values reported in BindingDB's records for PubMed 11454901 (Shionogi, 2001).

Biological target: T1, Prostaglandin-H2 D-isomerase (Sus scrofa, UniProt Q29095)
T1 sequence (Q29095 whole entry): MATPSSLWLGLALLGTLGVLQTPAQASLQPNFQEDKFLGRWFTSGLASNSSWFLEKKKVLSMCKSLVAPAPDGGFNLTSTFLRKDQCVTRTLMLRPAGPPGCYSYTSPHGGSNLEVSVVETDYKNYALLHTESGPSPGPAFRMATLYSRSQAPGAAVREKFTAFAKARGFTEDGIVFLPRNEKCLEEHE

Ki [nM] | SMILES
193 | CC1(C)[C@H]2C[C@H](C/C=C\CCCC(=O)O)[C@@H](NC(=O)c3csc4ccc(O)cc34)[C@@H]1C2
0.49 | O=C(O)CCC/C=C\C[C@@H]1C(NS(=O)(=O)c2ccccc2)C2CC[C@@H]1C2 (single isomer, unassigned; (+)) [S 145]
